Test results taken from US9770482B2, “Targeting the EGFR-SGLT1 interaction for cancer therapy” (The University of Houston System, priority 2013, dated 2017).
“Also recorded” adds a separate entry of the source. Peptide text beside a SMILES is read from it. * marks the point of attachment. Cbz = O=C(OCc1ccccc1)*

Key:
EGFR-SGLT1 interaction = target: T1, EGFR-SGLT1 interaction (Homo sapiens, UniProt P00533); assay: Immunoprecipitation coupled Western blot of EGFR-HA and SGLT1-Flag interaction in co-transfected HEK293 cells; format: cell-based; settings: WT-EGFR and SGLT1 co-transfected HEK293 cells; EGF 10 ng/ml or EGF plus AEE788 5 μM, 30-60 min; FIG. 3A
T1 construct: The full-length human EGFR was amplified with a forward primer EGFR-F; expressed in transfected cells; host or cells: HEK293

[1] = target: T2, endogenous EGFR-SGLT1 interaction (Homo sapiens, UniProt P00533); assay: Immunoprecipitation coupled Western blot of endogenous EGFR and SGLT1 interaction in PC3 cells; format: cell-based; settings: PC3 cells treated with EGF or AEE788; FIG. 3B
T2 construct: endogenous in cells; host or cells: PC3

SGLT1 [2] = assay: Western blot of SGLT1 level in SGLT1 and ΔAutoPhos-EGFR co-transfected HEK293 cells; format: cell-based, human; settings: FIGS. 2C-2D
Description: In an embodiment, to determine whether proteasome is involved in loss of interaction with EGFR induced down-regulation of SGLT1, SGLT1 and ΔAutoPhos-EGFR co-transfected HEK293 cells can be treated with a proteasome inhibitor, such as but not limited to […]. For example, FIG. 2C illustrates a Western blot analysis of the effect of a proteasome inhibitor MG132 on the down-regulation of SGLT1 by ΔAutophos-EGFR. Actin may be used as a loading control. FIG. 2D, by way of example only, illustrates a densitometric quantification of bands in the Western blot of FIG. 2C. Asterisk marks indicate statistical significance between the linked representative groups from triplicate experiments.
HEK293 cells were transfected with plasmids expressing flagged SGLT1 alone or with indicated HA tagged EGFR constructs. After 24 hours of transfection, cells were washed in 1× phosphate buffered solution and lysed with RIPA buffer (50 mM Tris-HCl, pH 8.0, with 150 mM sodium chloride, 1.0% Igepal CA-630 (NP-40), 0.5% sodium deoxycholate, and 0.1% sodium dodecyl sulfate), supplemented with a protease inhibitors cocktail for 6 hours on a shaker at 4° C. The cell lysates were then centrifuged for 2 minutes at 12000× rpm. Supernatant were then incubated with sepharose protein A/G beads conjugated with anti-flag or anti-SGLT1 antibody for overnight at 4° C. […]

EGFR = assay: Western blot of EGFR level in PC3 cells; format: cell-based; settings: FIG. 5B
Description: (§1) In another embodiment, a peptide can destabilize EGFR and SGLT1 proteins of cancer cells. FIG. 5A, by way of example only, illustrates an embodiment of a peptide, called ESD-01 (SEQ ID NO: 001), which can destabilize EGFR and SGLT1 proteins of cancer cells. In one embodiment, the ESD-01 peptide can be selected from the SGLT1 interacting domain of EGFR. In another embodiment, ESD-01 comprises amino acids 1049-1062 of a human EGFR protein (GenBank: AAH94761.1). In still another embodiment, the effects of ESD-01 on the stability of EGFR and SGLT1 in cultured cells (e.g, PC3, MDA-MB-231, and HCT116 cells) can be determined by Western blot analysis. […] In still another embodiment, the effects of ESD-01 on the survivability of cultured cancer cells (e.g, PC3, MDA-MB-231, and HCT116 cells) can be determined by trypan blue uptake assay.
(§2) For Western blot (WB) analysis, cells were lysed with RIPA buffer (150 mM NaCl, 50 mM Tris-HCl, pH 7.4, 0.1% SDS, 1% TritonX-100, 1 mM EDTA, 1 mM PMSF, 20 μg/ml aprotinin, 20 μg/ml leupeptin, 20 μg/ml pepstatine, 1% sodium deoxycholate, 1 mM NaF, 1 mM Na3VO4, in H2O). Proteins separated by 8% SDS-PAGE were transferred to PVDF membrane followed by blocking with 5% nonfat dry milk and then incubation with primary antibodies at optimized concentrations for overnight at 4° C. […]

SGLT1 [3] = assay: Western blot of SGLT1 level in PC3 cells; format: cell-based; settings: FIG. 5B
Description: as §1, §2

PC3 cells = assay: MTT cell growth assay, PC3 cells; format: cell-based; settings: phlorizin 50 μM with/without Gefitinib 10 μM or Erlotinib 10 μM, 48 hs, FIG. 4C
Experimental: (§3) It is well known that an increase in glucose levels can activate EGFR, that SGLT1 is over-expressed in prostate cancer tissues, and that prostate cancer is resistant to EGFR inhibitors. […] In an embodiment, SGLT1 and EGFR can synergistically promote prostate cancer growth. […] In one embodiment, the growth inhibitory effects of the treatments may be determined. […]
(§4) Cell growth was determined by 3-(4,5-dimethylthiazole-2-yl)-2,5-diphenyltetrazolium Bromide (MTT) assay in 96-well plates according to the protocol provided by the manufacture. […] Absorbance was measured by a MultiSkan plate reader (Thermo Fisher Scientific, NC) at 570 nm. […] Cell viability was determined by trypan blue uptake assay. The percentage of live cells were counted in areas (n=3 for each sample) randomly selected under 10× magnificence of triplicates. […]

LNCaP cells = assay: MTT cell growth assay, LNCaP cells; format: cell-based; settings: phlorizin 50 μM with/without Gefitinib 10 μM or Erlotinib 10 μM, 48 hs, FIG. 4D
Experimental: as §3, §4

[4] = tested on: prostate cancer PC3 cells; assay: Trypan blue uptake assay, PC3 cells; format: cell-based; settings: 100 μM for 24 hours, FIG. 6
Description: as §1
(§5) Cell growth was determined by 3-(4,5-dimethylthiazole-2-yl)-2,5-diphenyltetrazolium Bromide (MTT) assay in 96-well plates according to the protocol provided by the manufacture. Briefly, 5000 cells suspended in 100 μL medium were seeded in each well of a 96-well plate. […] Absorbance was measured by a MultiSkan plate reader (Thermo Fisher Scientific, NC) at 570 nm. […] Cell viability was determined by trypan blue uptake assay. The percentage of live cells were counted in areas (n=3 for each sample) randomly selected under 10× magnificence of triplicates.

[5] = tested on: prostate cancer Du145 cells; assay: Trypan blue uptake assay, Du145 cells; format: cell-based; settings: 100 μM for 24 hours, FIG. 6
Description: as §1, §5

[6] = tested on: breast cancer MDA-MB-231 cells; assay: Trypan blue uptake assay, MDA-MB-231 cells; format: cell-based; settings: 100 μM for 24 hours, FIG. 6
Description: as §1, §5

[7] = tested on: colon cancer HCT116 cells; assay: Trypan blue uptake assay, HCT116 cells; format: cell-based; settings: 100 μM for 24 hours, FIG. 6
Description: as §1, §5

[8] = tested on: non-cancerous HEK293 cells; assay: Trypan blue uptake assay, HEK293 cells; format: cell-based; settings: FIG. 6
Description: as §1, §5

cancer cells = assay: Killing of cancer cells in vitro, L- versus D-amino acid peptide; format: cell-based
[9] = target: T3, wild type EGFR, HA tagged (human, full length, C-terminal HA tag) (human, UniProt P00533 25-1210); assay: co-IP of SGLT1-Flag, Western blot for EGFR-HA, HEK293 cells treated with EGF or EGF plus AEE788
T3 construct: whole, on cells; Expressed by transient transfection in HEK293 cells; tested in RIPA lysates by co-immunoprecipitation; also called WT; WT-EGFR; not shown: C-terminal HA tag

[10] = target: T4, endogenous EGFR of PC3 cells (UniProt P00533 25-1210, limits assumed); assay: co-IP of endogenous SGLT1 (anti-SGLT1), Western blot for EGFR and pEGFR, PC3 cells treated with EGF or AEE788
T4 construct: whole, on cells; Co-precipitated from PC3 lysates with endogenous SGLT1

## CCN1CCN(Cc2ccc(-c3cc4c(N[C@H](C)c5ccccc5)ncnc4[nH]3)cc2)CC1 [AEE788]
EGFR-SGLT1 interaction
  effect on EGFR-SGLT1 interaction (EGFR co-immunoprecipitated with SGLT1): neither EGF nor AEE788 significantly affects the EGFR-SGLT1 interaction
[1]
  effect on endogenous EGFR-SGLT1 interaction: neither EGF nor AEE788 affect the EGFR-SGLT1 interaction

## CC(C)C[C@@H](C=O)NC(=O)[C@H](CC(C)C)NC(=O)[C@H](CC(C)C)NC(=O)OCc1ccccc1 [MG132] (Cbz-Leu-Leu-Leu-aldehyde)
SGLT1 [2]
  inhibition of down-regulation of SGLT1: can inhibit the down-regulation of SGLT1
EGFR; ESD-01 200 μM for 6 hours
  inhibition of ESD-01 induced EGFR down-regulation: inhibited
SGLT1 [3]; ESD-01 200 μM for 6 hours
  inhibition of ESD-01 induced SGLT1 down-regulation: inhibited

## O=C(CCc1ccc(O)cc1)c1c(O)cc(O)cc1O[C@@H]1O[C@H](CO)[C@@H](O)[C@H](O)[C@H]1O [Phlorizin]
PC3 cells
  sensitization to growth inhibitory effects of Gefitinib and Erlotinib: sensitizes; also recorded: significantly sensitize
LNCaP cells
  sensitization to growth inhibitory effects of Gefitinib and Erlotinib: sensitizes; also recorded: significantly sensitize

## ESD-01: synthesized peptide from the SGLT1 interacting domain of EGFR; comprises amino acids 1049-1062 of a human EGFR protein (GenBank: AAH94761.1) (LVWKQSCSSTSSTH; listed as Homo sapiens)
EGFR; 200 μM for 6 hours
  EGFR level: significantly down-regulates
SGLT1 [3]; 200 μM for 6 hours
  SGLT1 level: significantly down-regulates
[4]
  survivability: significantly reduces the survivability
[5]
  survivability: significantly reduces the survivability
[6]
  survivability: significantly reduces the survivability
[7]
  survivability: significantly reduces the survivability
[8]
  survivability: cannot reduce the survivability
Cancer cells
  killing cancer cells in vitro, peptide made of L-amino acids versus D-amino acids: equally effective

B1: flag tagged human SGLT1 (sodium/glucose co-transporter 1) (other, UniProt P13866 1-664, looked up)
chain: MDSSTWSPKTTAVTRPVETHELIRNAADISIIVIYFVVVMAVGLWAMFSTNRGTVGGFFLAGRSMVWWPIGASLFASNIGSGHFVGLAGTGAASGIAIGGFEWNALVLVVVLGWLFVPIYIKAGVVTMPEYLRKRFGGQRIQVYLSLLSLLLYIFTKISADIFSGAIFINLALGLNLYLAIFLLLAITALYTITGGLAAVIYTDTLQTVIMLVGSLILTGFAFHEVGGYDAFMEKYMKAIPTIVSDGNTTFQEKCYTPRADSFHIFRDPLTGDLPWPGFIFGMSILTLWYWCTDQVIVQRCLSAKNMSHVKGGCILCGYLKLMPMFIMVMPGMISRILYTEKIACVVPSECEKYCGTKVGCTNIAYPTLVVELMPNGLRGLMLSVMLASLMSSLTSIFNSASTLFTMDIYAKVRKRASEKELMIAGRLFILVLIGISIAWVPIVQSAQSGQLFDYIQSITSYLGPPIAAVFLLAIFWKRVNEPGAFWGLILGLLIGISRMITEFAYGTGSCMEPSNCPTIICGVHYLYFAIILFAISFITIVVISLLTKPIPDVHLYRLCWSLRNSKEERIDLDAEEENIQEGPKETIEIETQVPEKKKGIFRRAYDLFCGLEQHGAPKMTEEEEKAMKMKMTDTSEKPLWRTVLNVNGIILVTVAVFCHAYFA
notes: whole, on cells; Plasmid described in Blessing et al. 2012; Expressed in HEK293 cells and immunoprecipitated with anti-flag antibody; also called SGLT1-Flag; flagged SGLT1; not shown: Flag tag
[9]
  binding result: binds

B2: endogenous SGLT1 of PC3 cells (other, UniProt P13866 1-664, looked up)
chain: B1 chain
notes: whole, on cells; Immunoprecipitated from PC3 lysates with anti-SGLT1 antibody
[10]
  binding result: binds
